Experimental data from patent US9598423B2 (BRISTOL-MYERS SQUIBB COMPANY, priority 2013, dated 2017).
Like-named read-outs stand apart in the source and are kept apart here.

Columns and labels:
CK1δ = CK1δ (Homo sapiens (Human), UniProt P48730); experiment: CK1δ kinase assay (Caliper LABCHIP electrophoretic separation of fluoresceinated peptide substrate and product); format: biochemical
Procedure, shortened: (§1)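 Incubated for twenty-two hours at ambient temperature, then quenched with EDTA and analyzed by electrophoretic separation of unphosphorylated and phosphorylated peptide.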

CK1ε = CK1ε (Homo sapiens (Human), UniProt P49674); experiment: CK1ε kinase assay (Caliper LABCHIP electrophoretic separation of fluoresceinated peptide substrate and product); format: biochemical; conditions: 200 pM CK1ε, 50 μM ATP, 1.5 μM peptide substrate, 22 hours at room temperature; read-out: CK1ε (IC50)
Procedure, shortened: as §1

[1] = 200 pM CK1δ, 50 μM ATP, 1.5 μM peptide substrate, 22 hours at room temperature, read-out: CK1δ (IC50)

Sequence of CK1δ (P48730 whole entry): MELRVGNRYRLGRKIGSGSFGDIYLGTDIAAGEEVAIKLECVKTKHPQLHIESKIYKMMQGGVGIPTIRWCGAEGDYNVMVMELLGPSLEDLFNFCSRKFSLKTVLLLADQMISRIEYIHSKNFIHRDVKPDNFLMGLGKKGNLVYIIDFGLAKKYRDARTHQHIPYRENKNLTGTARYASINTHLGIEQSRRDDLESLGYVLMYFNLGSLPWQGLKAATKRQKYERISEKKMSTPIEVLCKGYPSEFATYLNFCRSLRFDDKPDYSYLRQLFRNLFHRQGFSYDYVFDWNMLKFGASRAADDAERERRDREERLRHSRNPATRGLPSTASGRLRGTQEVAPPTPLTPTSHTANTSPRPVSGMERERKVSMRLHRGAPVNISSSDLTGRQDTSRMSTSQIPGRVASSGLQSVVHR
Sequence of CK1ε (P49674 whole entry): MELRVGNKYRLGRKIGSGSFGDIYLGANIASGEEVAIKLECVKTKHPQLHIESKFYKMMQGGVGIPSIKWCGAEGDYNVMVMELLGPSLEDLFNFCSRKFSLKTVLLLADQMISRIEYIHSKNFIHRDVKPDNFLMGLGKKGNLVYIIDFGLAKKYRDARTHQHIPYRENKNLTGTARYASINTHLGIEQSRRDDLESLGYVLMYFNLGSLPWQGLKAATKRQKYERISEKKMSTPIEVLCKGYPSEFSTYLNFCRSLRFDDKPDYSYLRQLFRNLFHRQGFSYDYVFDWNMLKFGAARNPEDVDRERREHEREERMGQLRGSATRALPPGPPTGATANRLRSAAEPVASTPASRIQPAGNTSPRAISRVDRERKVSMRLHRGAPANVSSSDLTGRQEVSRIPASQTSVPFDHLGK

Row | SMILES | IC50 (CK1δ; [1]) | IC50 (CK1ε) | IC50 (CK1δ; CK1δ (IC50, nM))
1 | N#Cc1ccc(NC(=O)N2CCn3nc(-c4cnc(F)c(Cl)c4)c(C(N)=O)c3C2)cc1 [Compound 293, 2-(5-Chloro-6-fluoropyridin-3-yl)-N^5-(4-cyanophenyl)-6,7-dihydropyrazolo[1,5-a] pyrazine-3,5(4H)-dicarboxamide] | 0.01 to 10 nM | 0.01 to 10 nM | 
2 | Cc1cc(NC(=O)N2CCn3nc(-c4cnc(F)c(Cl)c4)c(C(N)=O)c3C2)ccc1C#N [Compound 294, 2-(5-Chloro-6-fluoropyridin-3-yl)-N^5-(4-cyano-3-methylphenyl)-6,7-dihydropyrazolo[1,5-a] pyrazine-3,5(4H)-dicarboxamide] | 0.01 to 10 nM | 0.01 to 10 nM | 
3 | N#Cc1ccc(NC(=O)N2CCn3nc(-c4cnc(Cl)c(Cl)c4)c(C(N)=O)c3C2)cc1 [Compound 297, N^5-(4-Cyanophenyl)-2-(5,6-dichloropyridin-3-yl)-6,7-dihydropyrazolo[1,5-a]pyrazine-3,5(4H)-dicarboxamide] | 0.01 to 10 nM | 0.01 to 10 nM | 
4 | NC(=O)c1c(-c2cncc(Cl)c2)nn2c1CN(C(=O)Nc1ccc(Cl)c(Cl)c1)CC2 [Compound 299, 2-(5-Chloropyridin-3-yl)-N^5-(3,4-dichlorophenyl)-6,7-dihydropyrazolo[1,5-a]pyrazine-3,5(4H)-dicarboxamide] | 0.01 to 10 nM | 0.01 to 10 nM | 
5 | NC(=O)c1c(-c2cc(Cl)cc(Cl)c2)nn2c1CN(C(=O)Nc1ccc(Cl)c(Cl)c1)CC2 [Compound 302, N^5-(3,4-Dichlorophenyl)-2-(3,5-dichlorophenyl)-6,7-dihydropyrazolo[1,5-a] pyrazine-3,5(4H)-dicarboxamide] | 0.01 to 10 nM | 0.01 to 10 nM | 
6 | COc1cccc(-c2nn3c(c2C(N)=O)CN(C(=O)Nc2ccc(Cl)c(Cl)c2)CC3)c1 [Compound 303, N^5-(3,4-Dichlorophenyl)-2-(3-methoxyphenyl)-6,7-dihydropyrazolo[1,5-a] pyrazine-3,5(4H)-dicarboxamide] | 0.01 to 10 nM | 0.01 to 10 nM | 
7 | Cc1cc(NC(=O)N2CCn3nc(-c4cc(Cl)c5ocnc5c4)c(C(N)=O)c3C2)ccc1C#N [Compound 310, 2-(7-Chlorobenzo[d]oxazol-5-yl)-N^5-(4-cyano-3-methylphenyl)-6,7-dihydropyrazolo[1,5-a]pyrazine-3,5(4H)-dicarboxamide] | 0.01 to 10 nM | 0.01 to 10 nM | 
8 | Cc1nc2cc(-c3nn4c(c3C(N)=O)CN(C(=O)Nc3ccc(C#N)cc3)CC4)cc(Cl)c2o1 [Compound 311, 2-(7-Chloro-2-methylbenzo[d]oxazol-5-yl)-N^5-(4-cyanophenyl)-6,7-dihydropyrazolo[1,5-a]pyrazine-3,5(4H)-dicarboxamide] | 0.01 to 10 nM | 0.01 to 10 nM | 
9 | Cc1nc2cc(-c3nn4c(c3C(N)=O)CN(C(=O)Nc3ccc(C#N)c(Cl)c3)CC4)cc(Cl)c2o1 [Compound 312, 2-(7-Chloro-2-methylbenzo[d]oxazol-5-yl)-N^5-(3-chloro-4-cyanophenyl)-6,7-dihydropyrazolo[1,5-a]pyrazine-3,5(4H)-dicarboxamide] | 0.01 to 10 nM | 0.01 to 10 nM | 
10 | Cc1nc2cc(-c3nn4c(c3C(N)=O)CN(C(=O)Nc3ccc(C#N)c(C)c3)CC4)cc(Cl)c2o1 [Compound 313, 2-(7-Chloro-2-methylbenzo[d]oxazol-5-yl)-N^5-(4-cyano-3-methylphenyl)-6,7-dihydropyrazolo[1,5-a]pyrazine-3,5(4H)-dicarboxamide] | 0.01 to 10 nM | 0.01 to 10 nM | 
11 | Cc1nc2cc(-c3nn4c(c3C(N)=O)CN(C(=O)Nc3ccc(C#N)c(F)c3)CC4)cc(Cl)c2o1 [Compound 314, 2-(7-Chloro-2-methylbenzo[d]oxazol-5-yl)-N^5-(4-cyano-3-fluorophenyl)-6,7-dihydropyrazolo[1,5-a]pyrazine-3,5(4H)-dicarboxamide] | 0.01 to 10 nM | 0.01 to 10 nM | 
12 | N#Cc1ccc(NC(=O)N2CCn3nc(-c4cc(Cl)c5[nH]ncc5c4)c(C(N)=O)c3C2)cc1F [Compound 316, 2-(7-Chloro-1H-indazol-5-yl)-N^5-(4-cyano-3-fluorophenyl)-6,7-dihydropyrazolo[1,5-a]pyrazine-3,5(4H)-dicarboxamide] | 0.01 to 10 nM | 0.01 to 10 nM | 
13 | Cc1cc(NC(=O)N2CCn3nc(-c4cc(Cl)c5[nH]ncc5c4)c(C(N)=O)c3C2)ccc1C#N [Compound 317, 2-(7-Chloro-1H-indazol-5-yl)-N^5-(4-cyano-3-methylphenyl)-6,7-dihydropyrazolo[1,5-a]pyrazine-3,5(4H)-dicarboxamide] | 0.01 to 10 nM | 0.01 to 10 nM | 
14 | Cn1ncc2cc(-c3nn4c(c3C(N)=O)CN(C(=O)Nc3ccc(C#N)cc3)CC4)cc(Cl)c21 [Compound 318, 2-(7-Chloro-1-methyl-1H-indazol-5-yl)-N^5-(4-cyanophenyl)-6,7-dihydropyrazolo[1,5-a]pyrazine-3,5(4H)-dicarboxamide] | 0.01 to 10 nM | 0.01 to 10 nM | 
15 | Cc1n[nH]c2c(Cl)cc(-c3nn4c(c3C(N)=O)CN(C(=O)Nc3ccc(C#N)cc3)CC4)cc12 [Compound 320, 2-(7-Chloro-3-methyl-1H-indazol-5-yl)-N^5-(4-cyanophenyl)-6,7-dihydropyrazolo[1,5-a]pyrazine-3,5(4H)-dicarboxamide] | 0.01 to 10 nM | 0.01 to 10 nM | 
16 | Cc1nn(C)c2c(Cl)cc(-c3nn4c(c3C(N)=O)CN(C(=O)Nc3ccc(C#N)cc3)CC4)cc12 [Compound 322, 2-(7-Chloro-1,3-dimethyl-1H-indazol-5-yl)-N-(4-cyanophenyl)-6,7-dihydropyrazolo[1,5-a]pyrazine-3,5(4H)-dicarboxamide] | 0.01 to 10 nM | 0.01 to 10 nM | 
17 | N#Cc1ccc(NC(=O)N2CCn3nc(-c4cc(F)c5cn[nH]c5c4)c(C(N)=O)c3C2)cc1Cl [Compound 323, N^5-(3-Chloro-4-cyanophenyl)-2-(4-fluoro-1H-indazol-6-yl)-6,7-dihydropyrazolo[1,5-a]pyrazine-3,5(4H)-dicarboxamide] | 10 to 100 nM | 0.01 to 10 nM | 
18 | N#Cc1ccc(NC(=O)N2CCn3nc(-c4cc(F)c5cn[nH]c5c4)c(C(N)=O)c3C2)cc1F [Compound 324, N^5-(4-Cyano-3-fluorophenyl)-2-(4-fluoro-1H-indazol-6-yl)-6,7-dihydropyrazolo[1,5-a]pyrazine-3,5(4H)-dicarboxamide] | 0.01 to 10 nM | 0.01 to 10 nM | 
19 | Cc1cc(NC(=O)N2CCn3nc(-c4cc(F)c5cn[nH]c5c4)c(C(N)=O)c3C2)ccc1C#N [Compound 325, N^5-(4-Cyano-3-methylphenyl)-2-(4-fluoro-1H-indazol-6-yl)-6,7-dihydropyrazolo[1,5-a]pyrazine-3,5(4H)-dicarboxamide] | 0.01 to 10 nM | 0.01 to 10 nM | 
20 | Cn1ncc2c(F)cc(-c3nn4c(c3C(N)=O)CN(C(=O)Nc3ccc(C#N)cc3)CC4)cc21 [Compound 326, N^5-(4-Cyanophenyl)-2-(4-fluoro-1-methyl-1H-indazol-6-yl)-6,7-dihydropyrazolo[1,5-a]pyrazine-3,5(4H)-dicarboxamide] | 0.01 to 10 nM | 0.01 to 10 nM | 
21 | Cn1cc2c(F)cc(-c3nn4c(c3C(N)=O)CN(C(=O)Nc3ccc(C#N)cc3)CC4)cc2n1 [Compound 328] | 10 to 100 nM | 10 to 100 nM | 
22 | N#Cc1ccc(NC(=O)N2Cc3c(C(N)=O)c(-c4ccc(F)c(Cl)c4)nn3CC2C2CC2)cc1 (stereo not shown) [Compound 341] | 100 to 2000 nM | 100 to 2000 nM | 
23 | N#Cc1ccc(NC(=O)N2Cc3c(C(N)=O)c(-c4ccc(F)c(Cl)c4)nn3CC23CC3)cc1 [Compound 343, 2′-(3-Chloro-4-fluorophenyl)-N^5′-(4-cyanophenyl)-4′H-spiro[cyclopropane-1,6′-pyrazolo[1,5-a]pyrazine]-3′,5′(7′H)-dicarboxamide] | 10 to 100 nM | 10 to 100 nM | 
24 | Cc1cc(NC(=O)N2Cc3c(C(N)=O)c(-c4ccc(F)c(Cl)c4)nn3CC23CC3)ccc1C#N [Compound 344, 2′-(3-Chloro-4-fluorophenyl)-N^5′-(4-cyano-3-methylphenyl)-4′H-spiro[cyclopropane-1,6′-pyrazolo[1,5-a]pyrazine]-3′,5′(7′H)-dicarboxamide] | 0.01 to 10 nM | 0.01 to 10 nM | 
25 | N#Cc1ccc(NC(=O)N2Cc3c(C(N)=O)c(-c4ccc(F)c(Cl)c4)nn3CC23CC3)cc1C(F)(F)F [Compound 345, 2′-(3-Chloro-4-fluorophenyl)-N^5′-(4-cyano-3-(trifluoromethyl)phenyl)-4′H-spiro[cyclopropane-1,6′-pyrazolo[1,5-a]pyrazine]-3′,5′(7′H)-dicarboxamide] |  | 10 to 100 nM | 10 to 100 nM
26 | N#Cc1ccc(NC(=O)N2Cc3c(C(N)=O)c(-c4ccc(F)c(Cl)c4)nn3[C@H]3COC[C@H]32)cc1 [Compound 347, (5aS,8aR)-2-(3-Chloro-4-fluorophenyl)-N^5-(4-cyanophenyl)-5a,6,8,8a-tetrahydrofuro[3,4-e]pyrazolo[1,5-a]pyrazine-3,5(4H)-dicarboxamide] | 0.01 to 10 nM | 0.01 to 10 nM | 
27 | N#Cc1ccc(NC(=O)N2Cc3c(C(N)=O)c(-c4ccc(Cl)c(Cl)c4)nn3[C@H]3COC[C@H]32)cc1 [Compound 349, (5aS,8aR)-N^5-(4-Cyanophenyl)-2-(3,4-dichlorophenyl)-5a,6,8,8a-tetrahydrofuro[3,4-e]pyrazolo[1,5-a]pyrazine-3,5(4H)-dicarboxamide] | 0.01 to 10 nM | 0.01 to 10 nM | 
28 | NC(=O)c1c(-c2cccc(Cl)c2)nn2c1CN(C(=O)Nc1cc(Cl)cc(Cl)c1)CC2CO (stereo not shown) [Compound A4, 2-(3-Chlorophenyl)-N^5-(3,5-dichlorophenyl)-7-(hydroxymethyl)-6,7-dihydropyrazolo[1,5-a]pyrazine-3,5(4H)-dicarboxamide] | 0.01 to 10 nM | 0.01 to 10 nM | 
29 | NC(=O)c1c(-c2cccc(Cl)c2)nn2c1CN(C(=O)Nc1ccc(N3CCCCC3)cc1)C[C@H]2CF [Compound A10, (S)-2-(3-Chlorophenyl)-7-(fluoromethyl)-N^5-(4-(piperidin-1-yl)phenyl)-6,7-dihydropyrazolo[1,5-a]pyrazine-3,5(4H)-dicarboxamide] | 0.01 to 10 nM | 0.01 to 10 nM | 
